One data set concerns B16F10 melanoma cells. Put plainly: Tumor growth inhibition by treated macrophages or their conditioned medium. In kind it is cell-based, mouse. Here is the method: DEGs were identified by edgeR at P<0.05 with at least 2 fold-change. Data for genes that were not classified as differentially expressed are plotted in black. […] Mouse BMMs were cultured in normal medium with or without 2.5 μM thiostrepton for 24 hrs (group 1), or cultured in B16F10 tumor cell conditioned medium (CM) with or without 2.5 μM thiostrepton for 24 hrs (group 2), or cultured with B16F10 tumor cell CM for 24 hrs first and then treated with 2.5 μM thiostrepton for another 24 hrs (group 3). The transcript levels of the indicated genes were quantified by qPCR. Data were summarized from two independent experiments. […] Mouse BMMs were treated with thiostrepton for 24 hrs. […] The number of tumor cells were quantified by flow cytometry after subtracting macrophages from total number of cells. […]
Conditioned medium (CM) was collected and filtered. […] The number of tumor cells were quantified by flow cytometry. […] Mouse BMMs (FIG. 14B) or hMDM (FIG. 14C) were treated with […] thiostrepton for 24 hrs, then co-cultured with equal number of eFluro670 and anti-CD20 labelled human B-cell lymphoma cells for 2 hrs, and analyzed by flow cytometry. […]
Mouse bone marrow-derived macrophages (mBMM) were prepared as described previously^54. […] Expression of Arg, Fizz1 and Vegfa were quantified by qPCR to assess the development of TAMs. […]

Data set [1] is described as follows: Macrophage numbers and gut bacterial counts in non-tumor bearing mice. It is filed as in vivo, mouse. Here is the method: (n=3). Shown are representative F4/80 versus CD11b staining profiles gating on CD45+ cells. I.P.: intraperitoneal injection; S.C.: paratumor subcutaneous injection. […] Data shown are mean±s.d. n.s., not significant by T-test.
Next, we examined whether thiostrepon has anti-tumor effect in vivo through activating macrophages. B16F10 melanoma cells were injected subcutaneously into syngeneic C57BL/6 mice. 6 and 12 days later, tumor-bearing mice were treated with either vehicle (DMSO), melanoma specific antibody TA99, thiostrepton, or combination of TA99 and thiostrepton by intraperitoneal injection (I.P.). […] Since thiostrepton inhibits cell proliferation and is an antibiotic, to exclude its systematic effects on immune cells and on gut microbiome, tumor-bearing mice were treated by para-tumor subcutaneous injection (S.C.) with a lower dose of thiostrepton (20 mg/kg). […] Consistently, more abundant macrophages were stained positive for F4/80 by immunochemistry in tumor sections from mice treated with thiostrepton or thiostrepton plus TA99 than mice treated with vehicle or T99 (FIG. 6E).

In the case of `C=C(NC(=O)C(=C)NC(=O)c1csc(C2=N[C@@H]3c4csc(n4)[C@H]4NC(=O)c5csc(n5)[C@H]([C@](C)(O)[C@@H](C)O)NC(=O)[C@H]5CSC(=N5)/C(=C/C)NC(=O)[C@H]([C@@H](C)O)NC(=O)c5csc(n5)[C@]3(CC2)NC(=O)[C@H](C)NC(=O)C(=C)NC(=O)[C@H](C)NC(=O)[C@H]([C@@H](C)CC)N[C@@H]2C=Cc3c([C@H](C)O)cc(nc3[C@H]2O)C(=O)O[C@@H]4C)n1)C(N)=O` [Thiostrepton], in the data set with B16F10 melanoma cells (12 hrs, vs untreated or heat-inactivated conditioned medium), the “melanoma cells in conditioned medium from treated macrophages” value was “more melanoma cells were lost”. Further, in the data set with B16F10 melanoma cells (BMMs treated 24 hrs, co-culture 12 hrs, vs untreated macrophages, dose-dependent), the “melanoma cells after co-culture with treated macrophages” value is recorded as “Significantly more melanoma cells were lost”. Besides, the “total bacterial counts in the gut” value in data set [1] (both dosing strategies) is “did not change”. For the same compound, in data set [1] (intraperitoneal administration), the “macrophages in the spleen and bone marrow” value is on record as “increased numbers”. Further, the macrophage numbers entry in data set [1] (subcutaneous administration) was “did not have significant effects”.

(Values after patent US20250262167A1, “COMPOUNDS, TARGETS AND PATHWAYS FOR MACROPHAGE MODULATION” (Massachusetts Institute of Technology, priority 2020, published 2025).)
